Drawing on PubChem BioAssay (NCI), this text covers GI50 and TGI for twelve compounds.

What all share (test): NCI anticancer screen, dose series, 48 h
Assay [1] has as its system HOP-62 NSCLC.
The test system of assay [2] is K-562 leukemia.
The test system of assay [3] is MCF7 breast.
In assay [4] the test system is NCI/ADR-RES ovarian.
For assay [5], the system named is OVCAR-4 ovarian.
In assay [6] the test system is OVCAR-5 ovarian.
In assay [7] the test system is SF-295 CNS.
The test system of assay [8] is SK-MEL-28 melanoma.
Assay [9] concerns SK-MEL-5 melanoma.
Assay [10] deals with UO-31 renal.

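All cell lines were grown in 96-well plates and treated with compound for 48 hours. Abbreviation: GI50, concentration required for 50% inhibition of growth. TGI: concentration producing complete growth inhibition.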

On to `CCOc1ccc(S(=O)(=O)/N=C2\C=C(SCC(=O)O)C(=O)c3ccccc32)cc1`, for which the GI50 in [1] is 20.7 µM; in assay [2] it was 3.35 µM; in assay [3] it was 1.64 µM; in assay [4], 3.26 µM; in assay [5], 2.16 µM; in [6], 5.5 µM. Besides, the GI50 is 13 µM in [7], 4.74 µM in assay [8], 1.72 µM in assay [9] and 4.13 µM in [10]. Moreover, the TGI in assay [1] amounted to 44.8 µM; in assay [2], 10.6 µM; in assay [3] it was 3.68 µM; in assay [4] it was 13.5 µM; in assay [5], 6.31 µM; in assay [6], 25.1 µM. Further, the TGI in [7] was determined as 30.2 µM; in assay [8] it was 16.3 µM; in [9], 3.1 µM; in [10] it was 15.8 µM.

Turning to `COc1ccc(-c2cc(-c3cc(Cl)ccc3Cl)nc3[nH]c(-c4cc(F)c(Cl)cc4Cl)cc(=O)c23)cc1`, the GI50 in [1] was 5.52 µM; in [2], 29.3 µM; in [3], 60.9 µM; in assay [4], 4.95 µM; in assay [5] it was over 100 µM; in assay [6], 22.2 µM. Besides, the GI50 in assay [7] was 23.8 µM; in assay [8], over 100 µM; in assay [9], 7.63 µM; in [10], 59.5 µM. Also, the TGI in [1] is 32.2 µM; in assay [2], over 100 µM; in assay [3] it was over 100 µM; in assay [4] it was 23.2 µM; in [5], over 100 µM; in assay [6], 89.2 µM. The TGI in [7] was over 100 µM; in assay [8], over 100 µM; in [9] it was 33.4 µM; in assay [10] it was over 100 µM.

For the compound `CN=C(N)N/N=C(\c1ccccc1)c1ccc(Br)cc1`, the GI50 is 1.15 µM in [1]; 0.294 µM in [2]; 0.268 µM in [3]; 0.322 µM in assay [4]; 0.713 µM in assay [5]; 0.494 µM in assay [6]. Further, the GI50 was 0.287 µM in assay [7], 0.844 µM in [8], 0.335 µM in assay [9] and 0.519 µM in assay [10]. For the same compound, the TGI was 13.3 µM in assay [1]; 6.31 µM in assay [2]; 8.33 µM in assay [3]; 3.25 µM in [4]; 15.2 µM in assay [5]; 5.62 µM in assay [6]. In addition, the TGI in [7] amounted to 1.48 µM; in assay [8], 5.38 µM; in [9] it was 1.29 µM; in [10], 6.28 µM.

Consider `CNC(=O)c1ccccc1CC1(O)c2ccccc2Oc2ccccc21`, for which the GI50 in assay [1] was 17.2 µM; in assay [2] it was 6.78 µM; in assay [3], 5.08 µM; in assay [4] it was 10.1 µM; in assay [5], 27.8 µM; in assay [6], 29.1 µM. Further, the GI50 in assay [7] is 20.7 µM; in [8] it was 23.2 µM; in assay [9], 3.2 µM; in assay [10], 29.4 µM. Besides, the TGI in [1] is 74.5 µM; in [2] it was over 100 µM; in assay [3], 44.5 µM; in assay [4], 86.9 µM; in assay [5], over 100 µM; in assay [6], over 100 µM. Besides, the TGI in [7] was over 100 µM; in assay [8], over 100 µM; in [9] it was 13 µM; in [10] it was over 100 µM.

In the case of `CN1CCN(Cc2ccc(C(=O)Nc3cncc(C#Cc4cnc(N)c5ccccc45)c3)cc2C(F)(F)F)CC1`, the GI50 in assay [1] was 2.19 µM; in assay [3], 1.67 µM; in assay [4] it was 1.93 µM; in assay [5], 1.18 µM; in assay [6], 2.67 µM; in [7], 1.86 µM. In addition, the GI50 in [8] is 1.75 µM; in assay [9], 1.73 µM; in assay [10], 1.59 µM. For the same compound, the TGI in assay [1] came to 4.42 µM; in assay [2] it was 1.15 µM; in assay [3], 3.39 µM; in assay [4], 4.22 µM; in [5], 3.05 µM; in [6], 6.91 µM. Further, the TGI in [7] was found to be 3.46 µM; in [8] it was 3.22 µM; in assay [9], 3.12 µM; in assay [10], 2.98 µM.

For `CC(=O)OCC1OC(O[C@@H]2C[C@H]3C(C)(C)[C@H](OC(C)=O)CC[C@]3(C)[C@H]3CCC4=C([C@@H](C)C[C@@H](O)[C@H](O)C(C)(C)O)CC[C@@]4(C)[C@@]32C)C(O)C(O)C1O` (some centres undefined), the GI50 was 16.2 µM in [1]; 12.7 µM in assay [2]; 2.89 µM in assay [3]; 20.4 µM in assay [4]; 17 µM in assay [5]; 17.7 µM in assay [6]. Further, the GI50 in [7] is 17.5 µM; in assay [8], 17 µM; in assay [9] it was 16.2 µM; in assay [10], 18.4 µM. The TGI is 30 µM in assay [1]; 32.5 µM in [2]; 11.9 µM in assay [3]; 43.5 µM in [4]; 31.1 µM in assay [5]; 31.6 µM in assay [6]. In addition, the TGI in [7] was found to be 31.6 µM; in assay [8], 30.9 µM; in assay [9], 29.7 µM; in [10], 32.7 µM.

Turning to `CC(CO)(CO)N=Cc1cc(I)cc(I)c1O`, the TGI in [1] was determined as 25 µM; in assay [2], 83.5 µM; in [3], 46.3 µM; in assay [4] it was 63.2 µM; in assay [5] it was 37.2 µM; in assay [6] it was 53.7 µM. Moreover, the TGI amounted to 47.3 µM in [7], 38.7 µM in assay [8], 28.5 µM in [9] and 34.6 µM in assay [10].

As to `O=C(CCN1CCN(c2cnc3ccccc3n2)CC1)c1csc2ccccc12`, the GI50 was 58.6 µM in assay [1]; 28.6 µM in assay [2]; 18.1 µM in assay [3]; over 100 µM in [4]; 28.2 µM in assay [5]; over 100 µM in assay [6]. Moreover, the GI50 was 36.1 µM in assay [7], 20 µM in assay [8], 60.3 µM in [9] and 25.1 µM in [10]. In addition, the TGI in assay [1] was over 100 µM; in [2] it was over 100 µM; in [3], 48.6 µM; in assay [4], over 100 µM; in assay [5] it was 92.5 µM; in [6] it was over 100 µM. For the same compound, the TGI was over 100 µM in assay [7], 42.7 µM in assay [8], over 100 µM in assay [9] and 77.5 µM in assay [10].

On to `CN(C)CC(=O)N1CCC(c2ccc(NC(=O)c3ncc(C#N)[nH]3)c(C3=CCCCC3)c2)CC1`, for which the GI50 in assay [1] was 7.07 µM; in assay [2], 3.21 µM; in assay [3] it was 3.37 µM; in assay [4] it was 14.8 µM; in assay [5], 10.1 µM; in assay [6] it was 10.8 µM. Also, the GI50 in [7] was 3.75 µM; in assay [8], 2.2 µM; in [9] it was 3.5 µM; in assay [10], 3.61 µM. Further, the TGI in assay [1] was 19.4 µM; in assay [2] it was 12 µM; in [3] it was 16.9 µM; in assay [4] it was 33.8 µM; in assay [5], 23 µM; in [6], 25.2 µM. The TGI was 15.7 µM in assay [7], 4.68 µM in [8], 13.4 µM in assay [9] and 15 µM in assay [10].

`Brc1cccc(-c2cc(-c3ccc4c(c3)OCCO4)[nH]n2)c1`: the GI50 was 1.38 µM in [1]; 0.584 µM in assay [2]; 1.06 µM in [3]; 0.766 µM in [4]; 7.79 µM in assay [5]; 3.69 µM in [6]. Moreover, the GI50 in [7] was 2.93 µM; in [8], 11.2 µM; in [9] it was 1.17 µM; in assay [10] it was 4.24 µM. The TGI turned out to be 41.3 µM in assay [1]; 250 µM in assay [2]; 41.2 µM in assay [3]; 29.8 µM in assay [4]; 48.5 µM in assay [5]; 35.4 µM in assay [6]. The TGI in assay [7] was found to be 32.7 µM; in assay [8], 55.5 µM; in assay [9], 30.3 µM; in assay [10], 36.6 µM.

Regarding `Cc1ccn2c3c(c(C(=O)O)c2c1)C(=O)c1ccccc1C3=O`, the GI50 in assay [1] is 5.93 µM; in assay [2], over 100 µM; in [3], 6.52 µM; in [4], 49.8 µM; in assay [5], 12.6 µM; in assay [6] it was 30.5 µM. The GI50 in assay [7] is 2.25 µM; in assay [8], 4.44 µM; in assay [9], 0.679 µM; in [10], 25.8 µM. Further, the TGI is over 100 µM in [1]; over 100 µM in assay [2]; 97.2 µM in assay [3]; over 100 µM in [4]; over 100 µM in assay [5]; over 100 µM in [6]. Besides, the TGI in assay [7] is 8.68 µM; in [8] it was over 100 µM; in assay [9], 1.97 µM; in assay [10], over 100 µM.

With `O=C(c1ccc2ccccc2c1)c1c(C(F)(F)F)n([O-])c2cc(Cl)c(Cl)cc2[n+]1=O`, the GI50 in assay [1] is 1.64 µM; in assay [2], 1.56 µM; in [3] it was 1.68 µM; in assay [4] it was 1.8 µM; in assay [5] it was 1.54 µM; in [6] it was 1.65 µM. For the same compound, the GI50 in assay [7] is 1.66 µM; in [8] it was 1.74 µM; in [9], 1.6 µM; in assay [10], 1.51 µM. For the same compound, the TGI in assay [1] turned out to be 3.03 µM; in assay [2], 3.12 µM; in [3], 3.41 µM; in assay [4] it was 3.95 µM; in [5], 3.17 µM; in [6] it was 3.01 µM. The TGI came out at 3.06 µM in [7], 3.57 µM in [8], 2.94 µM in assay [9] and 2.83 µM in assay [10].
